We go through 91 molecules from a melting point compilation (Tetko et al.; mined from patent text by program, amines drawn as free bases though some values may be those of a salt).

A value given as a limit tells only on which side of the number the result lay.

Take `O=S1(=O)CCC(NCCNC2CCS(=O)(=O)C2)C1` (stereo unspecified): the melting point (as a rule, the temperature, or range, at which the solid turns liquid) lay within 60 to 85 °C.
Next, `CN1CCN(c2nc(C(F)(F)F)cs2)CC1`: 62 °C; `CCOc1cc(C=C(Br)Br)ccc1OC`: 41 to 42 °C; `NC(=O)C1CN(Cc2ccccc2)CCN1` (stereo unspecified): 168 °C.
Next, `COc1ccc(C2=NN(C3CCN(S(C)(=O)=O)CC3)C(=O)CC2)cc1OC`: 164 to 166 °C; `FC(F)(F)c1ccc(C(Cl)=NN=Cc2ccccc2)cc1`: 95 to 96 °C.
Next, `c1ccc(CC[C@H]2CN(C3=Nc4ccccc4Sc4ccccc43)CCN2)cc1`: 48 to 59 °C; `CCOC(=O)c1[nH]c2ccc(Cl)cc2c1S(=O)(=O)c1ccccc1`: 201 to 202 °C; `COCCc1ccc(-c2ccc(I)cc2)cc1`: 97 to 99.4 °C.
The molecule `O=C(O)C1=Cc2cc(Cl)c(Oc3ccc(C(=O)O)cc3)cc2OC1C(F)(F)F` (stereo unspecified) yielded a melting point of over 300 °C.
`NNC(=O)c1ncccn1`: the melting point was in the range of 173 to 175 °C.
Next, `CCOC(=O)CSc1nc(N)cc(Cl)n1`: 113 to 116 °C; `Cn1nc(-c2cnc3[nH]cc(C(=O)NCC4CC4)c3n2)c2ccc(F)cc21`: 319 to 322 °C.
The same measure for `CCOC(=O)c1c(S(N)=O)c2ccccc2n1CC` (stereo unspecified): 78 to 80 °C; for `c1ccc(OC2CN(C(c3ccccc3)c3ccccc3)C2)cc1`: 83 to 85 °C.
The same measure for `CNC(=O)c1cc(-c2ccc(OC)cc2)nn(CC2CC2)c1=O`: 137 to 138 °C.
Consider `COC(=O)c1nc(C2CCCCC2)[nH]c1-c1ccc(C)cc1`, for which the melting point is 210 to 213 °C.
Molecule `O=C1CCC(c2c[nH]c3ccc(F)cc23)C1` (stereo unspecified) showed a melting point of 119 to 120 °C.
Turning to `Cc1cc(C(=O)c2ccc(Br)cc2)c(O)cc1Cl`, the melting point lay in the range of 238 to 239 °C.
With `O=C(O)c1nc2ccc(O)cc2[nH]1`, the melting point was in the range of 206 to 207 °C.
In turn, `COc1ccc(-c2ccc(C(N)=O)cc2)cc1-c1ccc2nonc2c1` displayed a melting point of 235 to 255 °C.
Next, `CC(=O)N1CCc2cc(C(=O)CCCN3CCC(c4noc5cc(F)ccc45)CC3)sc2C1`: 145 to 147 °C.
Next, `CC1(C)CC(NC(=O)c2cc(N)cc(N)c2)CC(C)(C)N1`: 188 to 190 °C.
On to `O=C(O)/C=C1\CCc2c(F)cc(Cl)cc21`, for which the melting point was 254 to 256 °C.
The molecule `CC(C)C[C@H](NC(=O)OCc1ccccc1)C(=O)N[C@@H](Cc1ccccc1)C(=O)COCc1ccco1` registered a melting point of 94 to 95 °C.
As to `CCCCCCCCCCCCCCCCSCC1(CS(=O)(=O)CCCI)CCCO1` (stereo unspecified), the melting point fell in the range of 36 to 37 °C.
The same measure for `C=NC(c1cccc(Nc2n[nH]c3ncnc(Nc4cccc(Cl)c4)c23)c1)N(C)C` (stereo unspecified): 175 to 177 °C.
Next, `O=C(Oc1ccc2ncccc2c1)c1ccccc1`: 77 to 79 °C.
With `COc1ccc(-c2nc(C(=O)Cl)c(C)o2)cc1`, the melting point was 89 °C.
The same measure for `Cc1cccc(-c2[nH]c(C(C)C)nc2-c2cccc(-c3cccs3)c2)n1`: 73 to 76 °C; for `COC(=O)C(C)C(C#Cc1ccccc1)c1ccc(OC)c(OC2CCCC2)c1` (racemic): 52 to 54 °C.
Next, `CCN1CCN(c2ccc(CC3=C(C)C(=O)c4ccccc4C3=O)cc2)CC1`: 81 to 82 °C; `Cc1c(SCCCCl)ccnc1CSc1ncccn1`: 83 to 85 °C; `C[C@H]1CCCC(C)(C)[C@@H]1C(=O)c1ccc(C#N)c(C(F)(F)F)c1`: 81.6 to 82.4 °C.
The same measure for `COc1cc(CCCC2OC(=O)NC2=O)ccc1OCc1nc(-c2ccccc2)no1` (stereo unspecified): 110 to 111 °C.
Regarding `CCOc1ccc(S(=O)(=O)NCc2ccccn2)cc1-c1nc2cccnc2c(=O)[nH]1`, the melting point is 230 to 231 °C.
The same measure for `O=C(O)CCCc1ccc(S(=O)(=O)Nc2ccccc2)cn1`: 158 to 159 °C; for `COc1nc(C)nc2c1-c1ccc(Cl)cc1C(c1ccccc1F)=NC2`: 188 to 189 °C; for `CCOC(=O)Oc1ccc(S(=O)(=O)N2c3c(C)cccc3-n3cccc3C2CC)cc1` (stereo unspecified): 104 °C.
With `COc1nc(N)nc(C2CC2)n1`, the melting point fell in the range of 158 to 159 °C.
Regarding `CC(=O)OCc1ncc2n1-c1ccc(Cl)cc1C(c1ccccc1F)=[N+]([O-])C2`, the melting point lay within 203 to 205 °C.
The molecule `CC(=O)NC[C@H]1CN(c2ccc(N3CCN(C(=O)OC(C)(C)C)CC3)c(F)c2)C(=O)O1` displayed a melting point of 153 to 159 °C.
As to `CCOC(=O)c1c(C)[nH]c(Sc2cc(Cl)cc(Cl)c2)c1C(C)C`, the melting point was 148 to 151 °C.
Molecule `COc1ccc(CN(C)CCCc2ccc(NC(=O)c3cccc4c(=O)c5ccccc5[nH]c34)cc2)cc1OC` had a melting point of 112 °C.
The same measure for `O=C1c2cc([N+](=O)[O-])cc3c(N4CCCC4)c([N+](=O)[O-])cc(c23)C(=O)N1O`: 249 to 250 °C.
The same measure for `CC1=C(c2ccccc2)C(=O)N(C(C)(C)C(=O)c2cc(F)cc(F)c2)CO1`: 157 to 158 °C.
Next, `O=C(O)[C@H](Cc1ccc(O)cc1)NS(=O)(=O)c1ccc(N2CCC(c3ccccc3)CC2)cc1`: 108 to 110 °C.
Regarding `CC1C(=O)N(c2ccc(F)cc2)C(=S)N1c1ccc(Oc2ccccc2)cc1` (stereo unspecified), the melting point was 150 °C.
Next, `CCc1nn(C)c(NC(=O)Cc2ccc(Br)cc2)c1Cl`: 167 to 168 °C; `CCSC(=NC(=O)N(C)C)NC(=O)NC`: 109 to 112 °C.
Next, `CC(C)(C)C(NC(=O)c1cc(Cl)cc(Cl)c1)Nc1c(Nc2cccnc2Cl)c(=O)c1=O` (stereo unspecified): 233 to 234 °C; `CC(C)c1cccc(C(C)C)c1NC(=O)[C@H](C)N`: 118 to 122 °C.
Next, `CN(CCCCCCC(=O)O)c1cnc(-c2ccccc2)c(-c2ccccc2)n1`: 114 to 118 °C; `N#Cc1sc(N2CCCC2)nc1N`: 305 to 308 °C.
`Cc1oc(-c2ccccc2)nc1CCOc1ccc(C#N)cc1`: the melting point fell in the range of 119 to 120 °C.
Next, `CC(C)(C)NC(=O)NCc1ccc2c(c1)C(=O)N(C1CCC(=O)NC1=O)C2=O` (stereo unspecified): 202 to 204 °C; `C=CCn1c(Nc2cc(C(F)(F)F)ccc2C(F)(F)F)nc(C(F)(F)F)cc1=O`: 116 to 118 °C.
The same measure for `CC(Cl)C(=O)Oc1coccc1=S` (stereo unspecified): 118 to 119 °C; for `N#Cc1cnc2c(sc3ccccc32)c1Cl`: 305 to 308 °C; for `Cc1ccc(CSCCC(=O)O)cc1`: 75.8 °C.
The same measure for `COCc1c(C=NO)nc(Oc2nccc3ccccc23)c2[nH]c3ccccc3c12`: 107 to 112 °C; for `N=C(NO)c1ccc(-c2cnc(-c3ccc(C(=N)NO)cc3)nc2)cc1`: 290 to 292 °C; for `COC(=O)CC[C@H](NC(=O)CCCCCCC1CNc2nc(NC(=O)C(C)(C)C)nc(O)c2C1)C(=O)OC` (stereo partly specified): 152 to 160 °C.
For the molecule `CC(=CC(=O)NCc1cccc(CNC(=O)C=C(C)C(=O)O)c1)C(=O)O`, the melting point fell in the range of 148 to 150 °C.
`COC(=O)Cc1ccc(OCCNC(=O)C2Cc3ccccc3N2S(=O)(=O)c2ccc(-c3cc(C)ccc3C)cc2)cc1` (stereo unspecified) showed a melting point of 56 to 59 °C.
On to `O=C1CCCCC1(CCCCCOc1ccccc1)c1ccccc1` (stereo unspecified), for which the melting point lay within 69 to 72 °C.
As for `Nc1ccc(C(=O)O)c2ccccc12`, the melting point lay in the range of 169 to 171 °C.
Next, `CN(C)c1ccc(C2(c3ccccc3)Oc3ccccc3-c3[nH]c4ccccc4c32)cc1` (stereo unspecified): 229 °C.
On to `Cc1ccc(NC(=O)c2nc[nH]c2C)cc1Cl`, for which the melting point fell in the range of 215 to 217 °C.
Turning to `CSC(=O)N(C)c1nnc(-c2cccnc2)s1`, the melting point fell in the range of 192 to 194 °C.
Turning to `CC1(C)Cc2sc3c(c2C1)CCC3=O`, the melting point was 60 to 62 °C.
For the molecule `CCNc1c(OC)cc(C(=O)OC)cc1OC`, the melting point was in the range of 50 to 51 °C.
The molecule `CN1C(=O)CN2CCNC2(c2ccccc2)c2cc(Cl)ccc21` (stereo unspecified) displayed a melting point of 164 to 167 °C.
Regarding `CCN(c1cccc(Cl)c1)C(C(=O)O)c1c(Cl)cccc1Cl` (stereo unspecified), the melting point is 120 °C.
The same measure for `CCCn1c(=O)c2[nH]c(-c3cc(C)n(CC(=O)Nc4cccc5ccccc45)n3)nc2n(CCC)c1=O`: over 300 °C; for `Nc1ccccc1C(=O)C1CC1`: 46 to 48 °C; for `NC(=O)CNC(=O)c1ccc(-c2cccc3cc(COc4cccc(C(F)(F)F)c4)sc23)cc1`: 164 to 165 °C.
For the molecule `CSC(=Cc1ccc(N)cc1)S(C)=O` (stereo unspecified), the melting point lay in the range of 165 to 166 °C.
The molecule `CCN(CCC12CC3CC(CC(C3)C1)C2)C(=O)NCCCc1ccncc1` came in with a melting point of 106 to 115 °C.
In turn, `COC(=O)c1coc(-c2ncn3c2CN(C)C(=O)c2sccc2-3)n1` showed a melting point of 254 to 255 °C.
As to `COc1ccc(C2CN(C)Cc3c(N)cccc32)cc1OC` (stereo unspecified), the melting point was in the range of 143 to 144 °C.
Molecule `CCCc1nn(C)c2c(=O)[nH]c(-c3cc(Br)ccc3OCC)nc12` returned a melting point of 157 to 159 °C.
The same measure for `CCCCSc1cc(C(=O)O)cc(S(N)(=O)=O)c1Cl`: 202 to 203 °C.
The same measure for `COC(=O)C1CCC2C3CCC4CC(O)CCC4(C)C3C(N)CC12C` (stereo unspecified): 113 to 116 °C.
The same measure for `CCCCNc1nc2cnnc(OCC)c2cc1C(=O)OCC`: 98 to 99 °C; for `CCCC[C@@H](C)C[C@@H](CC(=O)OC(C)(C)C)C(=O)O`: 142 to 143 °C; for `O=C(OCCCCc1ccc2[nH]c(=O)oc2c1)C(F)(F)F`: 100 to 103 °C.
Consider `Cn1c(C(F)(F)F)cc(=O)n(-c2c(F)cc(Cl)c3cc(C=O)oc23)c1=O`, for which the melting point lay within 180 to 183 °C.
The same measure for `CN1Cc2c(-c3nc(CNCc4ccccc4)no3)ncn2-c2ccccc2C1=O`: 195 to 198 °C; for `O=C1CCC(=O)N1CCCCCNC(=O)n1cc(F)c(=O)[nH]c1=O`: 142 °C.
The same measure for `COCCOc1ccc(Nc2nc(Nc3cc4c(cc3OC)CCN(CC(=O)N(C)C)CC4)ncc2Cl)c(S(=O)(=O)C(C)C)c1`: 65 to 75 °C.
